A short description of series [1]: solid-state form interconversion (variable temperature X-ray, drying). The format is physicochemical. To be noted: ambient conditions or drying. The source says: FIG. 5 is an overlay of variable temperature X-ray powder diffraction patterns showing the appearance of the non-isolatable anhydrous Form C of the 2:1 compound I:biphthalate salt.
FIG. 6 is an overlay of X-ray powder diffraction patterns comparing Form B, the dihydrate 2:1 compound I:biphthalate salt, with Form D, the tetrahydrate 2:1 compound I:biphthalate salt. When the wet cake of the 2:1 compound I:biphthalate salt, was air dried at room temperature, Form D was obtained at both T=5 days and T=8-days. The various methods of drying possible, in addition to the size of the sample to be dried, can vary the time needed for drying. The dryness was determined by a stable TG curve showing about a 6% weight loss. Here, the method was to dry in open air, and at both time points (T=5 and T=8 days), the weight loss by TGA was equal to about 6%.
In another embodiment of the invention, anhydrous 2:1 compound I:biphthalate material was non-isolatable at ambient condition, but the hygroscopicity study indicated the presence of one or more hydrated states from 15% to 95% RH. The weight percent of water was 3.4% at 15% RH with a gradual increase to 6.1% at 95%. […] Form D is suspected to be a tetrahydrate biphthalate salt based on its TG data in addition to the hygroscopicity data of Form B. Upon further drying (15 days), the TG and XRD data conform to that of Form B, the dihydrate 2:1 compound I:biphthalate salt.

Series [2] in a line: hygroscopicity by symmetric vapor sorption analyzer. It is filed as physicochemical. To be noted: 25° C. As for the experimental part:
A large quantity of Form A (wet cake of N-(3H-imidazo[4,5-B]pyridin-2-ylmethyl)-2-fluoro-4-methyl-3-oxo-4-aza-5-alpha-androst-1-en-17-beta-carboxamide) was generated by dissolving the crystalline free base (Form E) in pH 3—potassium biphthalate and sulfuric acid mixture—for 10 days at RT. The slurry was filtered and washed with copious amount of D.I. water to wash off residual ions. The wet cake (Form A) was analyzed by x-ray and was then vacuum dried at 37° C. for 3 days. Upon drying, a change in x-ray pattern was observed. The dry cake (Form B) was then analyzed by differential scanning calorimetry (DSC) and thermogravimetry (TG). The TG analysis was performed under a nitrogen flow at a heating rate of 10° C./min, and the DSC was performed under nitrogen flow at a heating rate of 10° C./min in a covered pan. The hygroscopicity of Form B was determined using a symmetric vapor sorption analyzer. The experiment includes an initial drying step at 60° C., followed by measurements of water sorption at 25° C. for percent RH values from 5% to 95% in 10% intervals. The data are reported as percent weight gain as a function of percent RH. Form B was also analyzed for weight percent by liquid chromatography (LCWP) by high performance liquid chromatography (HPLC).

For the compound `CN1C(=O)C(F)=C[C@]2(C)C3CC[C@]4(C)[C@@H](C(=O)NCc5nc6cccnc6[nH]5)CC[C@H]4C3CC[C@@H]12` (some centres unmarked) [Form B], the “solid-state form stability / conversion” value in series [1] is reported as “the most stable form”. Further, the “weight percent of water” value in series [2] (at 15% RH) is reported as 3.4%; in series [2] (at 95% RH), 6.1%.
On to `CN1C(=O)C(F)=C[C@]2(C)C3CC[C@]4(C)[C@@H](C(=O)NCc5nc6cccnc6[nH]5)CC[C@H]4C3CC[C@@H]12` (some centres unmarked) [Form C], for which the “solid-state form stability / conversion” value in series [1] was “readily hydrates to Form B in ambient conditions”.
For `CN1C(=O)C(F)=C[C@]2(C)C3CC[C@]4(C)[C@@H](C(=O)NCc5nc6cccnc6[nH]5)CC[C@H]4C3CC[C@@H]12` (some centres unmarked) [Form D], the “solid-state form stability / conversion” value in series [1] is “converts to Form B upon further drying”.

Source of the values: patent US20090048283A1, “Salt of an androgen receptor modulator” (priority 2007, published 2009).
